Columns and labels:
[1] = test system: animal model of metabolic disease accompanied by obesity/diabetes and chronic inflammation; assay: High-fat diet obesity/diabetic metabolic disease model; format: in vivo, C57BL/6J mice; conditions: vs PBS buffer group; for blood glucose in insulin resistance experiment (ITT): after insulin administration, time as stated in the value
Experimental: An animal model of metabolic disease accompanied by obesity/diabetes and chronic inflammation was induced by feeding a high-fat diet.
The experiment in the groups administered with Amuc_1409 or PEP001 to PEP005 was performed using 8-week-old SPF male C57BL/6J mice, and the metabolic disease accompanied by obesity/diabetes and chronic inflammation was induced by ad libitum feeding of a high-fat diet for 45 weeks or 8 weeks. Specifically, mice fed a high-fat diet for 45 weeks were fed a high-fat diet for an additional 3 weeks, and Amuc_1409 was dissolved in PBS buffer at a concentration of 2.4 μM and then orally administered to the mice by 150 μL per animal at the same time once a day until the end of the experiment, or mice fed a high-fat diet for 8 weeks were fed a high-fat diet for an additional 3 weeks, and PEP001, PEP002, PEP003, PEP004, or PEP005 was dissolved in PBS buffer at a concentration of 2.4 μM and then orally administered to the mice by 150 μL per animal at the same time once a day until the end of the experiment. To the control group, PBS buffer was orally administered in the same manner.
For the experiment in the groups administered with PEP006 to PEP013, 8-week-old male C57BL/6J mice were used, and the metabolic disease accompanied by obesity/diabetes and chronic inflammation was induced by ad libitum feeding of a high-fat diet for 32, 50, or 53 weeks. Mice fed a high-fat diet for 32 weeks were fed a high-fat diet for an additional 3 weeks, and a novel tetrapeptide PEP006 was dissolved in PBS buffer at a concentration of 0.15 μg/150 μL (PEP006) and then orally administered to the mice by 150 μL per animal at the same time until the end of the test, mice fed a high-fat diet for 50 weeks were fed a high-fat diet for an additional 3 weeks, and a novel tetrapeptide PEP007, PEP008, PEP009, or PEP010 was dissolved in PBS buffer at a concentration of 0.2 μg/150 μL (PEP007 to PEP013) and then orally administered to the mice by 150 μL per animal at the same time until the end of the test, and mice fed a high-fat diet for 53 weeks were fed a high-fat diet for an additional 3 weeks, and a novel […] PEP011, PEP012, or PEP013 was dissolved in PBS buffer at a concentration of 0.2 μg/150 μL (PEP007 to PEP013) and then orally administered to the mice by 150 μL per animal at the same time until the end of the test. To the control group, PBS buffer was orally administered in the same manner.
For all animals, general symptoms were observed immediately before administration at the start of administration, and the body weight was measured until the end of the test after group separation.
Insulin (Humalog, 1 unit/kg) was intraperitoneally injected into mice fasted for 4 hours at 2 weeks after the start of test substance administration (2 weeks in groups administered with Amuc_1409 and PEP001 to PEP005 and 3 weeks in groups administered with PEP006 to PEP013), and then blood glucose at 30 minutes, 60 minutes, 90 minutes, and 120 minutes was measured from a small amount of blood obtained through a wound at the tip of the tail using ACCU-CHECK (Roche), thereby performing an insulin tolerance test (ITT).
At the end of the test, fasting blood glucose was measured from a small amount of blood obtained through a wound at the tip of the tail of the mouse fasted for 16 hours using ACCU-CHECK, and blood was collected from the orbital venous plexus using a heparin-treated capillary tube. The collected blood was immediately centrifuged at 10,000 rpm (4° C.) for 10 minutes to separate plasma, and then subjected to analysis of total cholesterol (TC) and low-density lipoprotein cholesterol (LDL-C), which are blood abnormal lipid indicators, using an automated blood biochemical analyzer.

small intestine organoid = assay: Small intestine organoid sprouting; format: cell-based, C57BL/6J mice; conditions: 16 nM on days 0, 2, 4; day 5 of culture; vs PBS buffer
Experimental: In order to establish a small intestine organoid model, the small intestine of 15-week-old male C57BL/6J mice was cut longitudinally from the proximal end to the distal end, and cut transversely into about 5 mm long pieces. The small intestine tissue thus obtained was washed with refrigerated PBS containing 1% penicillin. Thereafter, the washed small intestine tissue was treated with dissociation buffer and filtered through a cell strainer to isolate crypts. The isolated crypt was cultured in Matrigel and Organoid Growth Medium (Intesticult™) mixed at a ratio of 1:1, Matrigel was solidified at 37° C. for 20 minutes in a 12 well plate, and then medium (500 μL/well) was added. The medium was replaced after 4 days, and subculture was performed on day 7.
For novel peptide screening, organoids 3D cultured in medium and Matrigel support were dispensed into 3 wells per group using a 12-well plate and 50 organoids per well. On days 0, 2, and 4 of culture, the organoids were treated with novel tetrapeptides PEP006, PEP007, PEP008, PEP009, and PEP010 and novel tripeptides PEP011, PEP012, and PEP013 at a concentration of 16 nM as described above, and the number of lobes of sprouted organoids on day 5 of culture was examined and analyzed for comparison. The control group was treated with PBS buffer in the same manner.

| Substance | blood glucose in insulin resistance experiment (ITT) [1] | AUC value of the insulin resistance experiment [1] | number of lobes of sprouted organoids (small intestine organoid) |
| --- | --- | --- | --- |
| AIS [PEP013] | decreased close to a significant level from 30 minutes to 120 minutes after insulin administration | decreased close to a significant level | significantly increased |
| AQS [PEP011] | decreased close to a significant level from 30 minutes to 120 minutes after insulin administration | decreased close to a significant level | significantly increased |
| IGAY (PEP008) | decreased to a significant level from 30 minutes to 120 minutes after insulin administration | significantly decreased | significantly increased |
| RGAY (PEP007) | decreased to a significant level from 30 minutes to 120 minutes after insulin administration | decreased close to a significant level | significantly increased |
| SGAY (PEP009) | decreased to a significant level from 30 minutes to 120 minutes after insulin administration | decreased close to a significant level | significantly increased |
| VGAY (PEP010) | decreased to a significant level from 30 minutes to 120 minutes after insulin administration | decreased close to a significant level | significantly increased |
